Test results taken from patent US11857638B2, “Quinone-containing conjugates” (PROMEGA CORPORATION, priority 2018, dated 2024).

How the values were obtained:
human diaphorase = human diaphorase (Homo sapiens, UniProt P15559); assay: Non-cellular reductive release of luciferin (luciferin detection reagent with reductase and NADH); format: biochemical; details: after 1 hour, FIG. 3
Description: (§1) This property may provide an additional advantage in ADCs where it is critical that payload is not released outside of target cells. The observations are as follows. When D-luciferin is derivatized on the 6′ hydroxyl by addition of the TMQ linker, its activity as a substrate for luciferase is blocked (PBI-4312), but free D-luciferin that is fully active with luciferase is readily released
[drawing 143] from a luciferin-TMQ derivative when subjected to reducing conditions inside or outside of a cell. However, release of D-luciferin from a protein-TMQ-luciferin conjugate by an extracellular reductive mechanism was substantially diminished compared to luciferin-TMQ. In other words, the protein moiety of the conjugate stabilizes the luciferin payload against reductive release from the TMQ linker in a non-cellular environment. Non-cellular reducing conditions include an aqueous reducing agent solution (e.g. DTT) or a reductase reaction mixture (FIG. 3). This was true for two conjugates with a luciferin payload as well as a luciferin-TMQ conjugate with bovine serum albumin (BSA). Whereas the reaction conditions produced substantial amounts of light with PBI-4312 (>900,000 RLU after 1 hour), only minimal signals were produced from similar amounts of the protein conjugates (<800 RLUs after 1 hour). […]

luciferase = assay: Activity as a substrate for luciferase; format: biochemical; details: D-luciferin derivatized on the 6′ hydroxyl with TMQ linker
Description: as §1

human diaphorase, sequence (P15559 whole entry): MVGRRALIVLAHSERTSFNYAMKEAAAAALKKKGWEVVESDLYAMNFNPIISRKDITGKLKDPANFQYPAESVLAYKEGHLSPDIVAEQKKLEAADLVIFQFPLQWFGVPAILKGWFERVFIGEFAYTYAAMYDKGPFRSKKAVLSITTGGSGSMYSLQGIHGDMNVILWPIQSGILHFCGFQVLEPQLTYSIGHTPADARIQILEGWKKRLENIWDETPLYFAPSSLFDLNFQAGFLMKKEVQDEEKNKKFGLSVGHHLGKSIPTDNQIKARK

CC1=C(C)C(=O)C(C(C)(C)CC(=O)N(C)CCN(C)C(=O)Oc2ccc3nc(C4=N[C@@H](C(=O)O)CS4)sc3c2)=C(C)C1=O [PBI-4312]
light produced (luciferin luminescence) (human diaphorase): > 900,000 RLU
activity as a substrate for luciferase (luciferase): blocked
